In US9861678B2, “Casein peptide for use in the treatment of uterine infections” (Mileutis Ltd., priority 2010, dated 2018):

Legend:
[1] = tested on: dairy cows with clinical postpartum metritis; assay: Clinical study 1, low dose: casein hydrolysate vs antibiotics in post-partum bovine clinical metritis (safety and efficacy); type: in vivo; details: for genital secretions (ranking): score 0-4 per Table 2
Experimental: The effects of bovine casein hydrolysate in comparison with antibiotic drugs, was studied in dairy cows suffering from acute puerperal metritis (Sheldon et al., ibid 2006).
The cows recruited for this study were lactating Holstein Friesian located in large dairy herd in Israel (longitude 34°40′E-35°30′E; latitude 30°30′N-33°01′N). The cows were milked 3 times a day. The herd used was free-stall barn with a size ranged from 300 to 350 milking cows.
Cows are enrolled to the study provided that their physical condition is complied with the inclusion criteria as follows: • Cows with clinical postpartum metritis, • Cows with non-twins delivery, • Cows were not administered with intrauterine or systemic reproductive hormone therapy during the last 4 weeks, • Cows with no diagnosed morbidities, which may be potentially influence the outcome of treatment in the judgment of the investigator, • The herd managers agreed not to administer any intrauterine or reproductive hormonal therapy before examination of cows for this trial.
In addition, cows were enrolled to the clinical study provided that they have none of the following characteristics (herein “exclusion criteria”): • Cows had abnormal internal genitalia (including adhesions) • Cows with diagnosis and or treatment of severe vaginitis, lameness, mastitis-ketosis and digestive disorders during the current post calving period or any other clinical disease requiring systemic treatment at enrollment, • Cows identified to be culled (not to be inseminated) after calving • Cows administrated with immunotherapy within 3 weeks prior to study entry, • Cows administrated with anti-inflammatory and/or anabolic therapies, either systemic or by feeding 2 weeks prior to study entry. • Cows which are suspected or with a diagnosis of retained fetal membranes at the time of the current calving. • Cows which are suspected or with a clinical evidence of acute puerperal metritis with a systemic effect • Cows which are indented to be removed for any reason from the farm in the current location.
Cows in a proper physical condition (as defined above in the inclusion criteria and the exclusion criteria), that were diagnosed with confirmed clinical metritis, as determined by any one of the following clinical criteria, were enrolled to this clinical study:
1) cows must be febrile (i.e., morning rectal temperature more than 39.4° C.) and/or
2) cows must have a flaccid, non-retractable uterus that is located in the abdomen, a cervical diameter >7.5 cm, and a watery, mucopurulent, or fetid vulvar discharge.
On day “0” (first day of the study), dairy heifers or primiparous or multiparous dairy cows from the same herd and within the same lactation and ages were randomly divided, using tables prepared in advance by the investigator, to receive one or other of the treatments. Within each table, cows were assigned to treatment in pairs, a cow for each group.
Case study Arm (“arm 1”)—450 mg of bovine casine hydrolysate (Batch Number B100) administered in a 150 ml solution until completion of the arm's sample size.
(§1) Control Arm (“arm 2”)—25 ml of Oxytetracycline dehydrate (200 mg/ml total of 5,000 mg) (Norbrook Laboratory, UK).
(§2) Treatment was initiated at day “0” and was administered to the cows through transcervical intrauterine infusion using a sterile uterine catheter.
Safety was determined by monitoring on days 0.3, 1, 2, 3, 7 and 14 post-treatment, the appearance of adverse events (as detailed below) or any sign of toxicity.
In addition, the overall general impression from each cow was assessed and ranked according to the description on Table 1.
Efficacy was assessed by measuring the rectal temperature; genital system morphology and the genital secretions at a first visit after the morning observation and milking, before the treatment, 6-8 hours after the treatment and then on days 1, 2, 3, 7 and 14 post treatment. In general, treatment success was assessed after a total of 14 days after treatment. […]

[2] = tested on: dairy cows with clinical postpartum metritis; assay: Clinical study 2, high dose: casein hydrolysate vs antibiotics in post-partum bovine clinical metritis (safety and efficacy); type: in vivo, lactating Israel Holstein Friesian cows
Experimental: The cows recruited for this study were lactating Israel Holstein Friesian located in a large dairy herd in Israel (longitude 34°40′E-35°30′E; latitude 30°30′N-33°01′N).
Cows enrollment to the study with respect to the physical conditions, inclusion criteria and exclusion criteria were as detailed above for clinical study-1 with respect to the overall physical condition and with respect to the diagnosis with clinical post partum metritis. In addition, cows randomization was as detailed above.
On day “0” (first day of the study) dairy heifers or primiparous or multiparous dairy cows from the same herd and with the same lactation and ages were randomly divided, using tables prepared in advance by the investigator, to receive one or other of the treatments. Within each table, cows were assigned to treatment in pairs, a cow for each group.
Case study Arm (“arm 1”)—1350 mg of bovine casein hydrolysate (Batch Number B100) administered in a 150 ml solution 3 times.
as §1, §2
Safety and efficacy criteria are as detailed above for clinical study 1 (Example 2)
The administrated veterinarian examined all cows and was in charge on the ranking of the genital secretions, from 1 to 4, based on the descriptions provided in Table 2 of clinical study 1 as well as the genital system morphology according to the description in Table 3 of clinical study 1 and the overall general impression from each cow according to the description on […].

CN(C)[C@@H]1C(O)=C(C(N)=O)C(=O)[C@@]2(O)C(O)=C3C(=O)c4c(O)cccc4[C@@](C)(O)[C@H]3[C@H](O)[C@@H]12 [Antibiotics, Oxytetracycline dehydrate]
cow's fever (rectal temperature) ([1]; 6-8 h after treatment, casein hydrolysate 450 mg or oxytetracycline 5,000 mg intrauterine): 39.4 ± 0.66 °C
genital secretions (ranking) ([1]; 6-8 h after treatment): 3.0 ± 0.92
cow's fever (rectal temperature) ([1]; Before treatment (day = 0), casein hydrolysate 450 mg in 150 ml or oxytetracycline 5,000 mg, intrauterine infusion, 8 cows per arm): 38.8 ± 0.26 °C
genital secretions (ranking) ([1]; Before treatment (day = 0), casein hydrolysate 450 mg or oxytetracycline 5,000 mg intrauterine): 3.625 ± 0.517
cow's fever (rectal temperature) ([1]; Day 1 (22-32 h after treatment), casein hydrolysate 450 mg or oxytetracycline 5,000 mg intrauterine): 39.1 ± 0.27 °C
genital secretions (ranking) ([1]; Day 1 (22-32 h after treatment)): 2.12 ± 0.84
cow's fever (rectal temperature) ([1]; Day 2, casein hydrolysate 450 mg or oxytetracycline 5,000 mg intrauterine): 39.1 ± 0.47 °C
genital secretions (ranking) ([1]; Day 2): 2.0 ± 0.92
cow's fever (rectal temperature) ([1]; Day 3, casein hydrolysate 450 mg or oxytetracycline 5,000 mg intrauterine): 38.9 ± 0.37 °C
genital secretions (ranking) ([1]; Day 3): 2.0 ± 0.92
cow's fever (rectal temperature) ([1]; Day 7, casein hydrolysate 450 mg or oxytetracycline 5,000 mg intrauterine): 38.9 ± 0.18 °C
genital secretions (ranking) ([1]; Day 7): 1.5 ± 0.75
cow's fever (rectal temperature) ([1]; Day 14, casein hydrolysate 450 mg or oxytetracycline 5,000 mg intrauterine): 38.8 ± 0.41 °C
genital secretions (ranking) ([1]; Day 14): 1.5 ± 0.75
cow's fever (rectal temperature) ([2]; 6-8 h after treatment, casein hydrolysate 1350 mg or oxytetracycline 5,000 mg intrauterine): 39.1 °C
cow's fever (rectal temperature) ([2]; Before treatment (day = 0), casein hydrolysate 1350 mg (150 ml solution 3 times) or oxytetracycline 5,000 mg, intrauterine, 4 and 3 cows): 38.4 °C
cow's fever (rectal temperature) ([2]; Day 1 (22-32 h after treatment), casein hydrolysate 1350 mg or oxytetracycline 5,000 mg intrauterine): 38.6 °C
cow's fever (rectal temperature) ([2]; Day 2, casein hydrolysate 1350 mg or oxytetracycline 5,000 mg intrauterine): 38.4 °C
cow's fever (rectal temperature) ([2]; Day 3, casein hydrolysate 1350 mg or oxytetracycline 5,000 mg intrauterine): 38.9 °C
cow's fever (rectal temperature) ([2]; Day 7, casein hydrolysate 1350 mg or oxytetracycline 5,000 mg intrauterine): 38.3 °C
cow's fever (rectal temperature) ([2]; Day 14, casein hydrolysate 1350 mg or oxytetracycline 5,000 mg intrauterine): 38.7 °C
